Article PMC12703428, “Development of Granzyme A Turn‐ON Fluorescent Activity‐Based Probes” (Chembiochem, 2025)
Square brackets hold non-standard residues; d marks the D form. Ends that are not written are not given here. Oic = O=C(O)[C@@H]1C[C@@H]2CCCC[C@@H]2N1; Tic = O=C(O)[C@@H]1Cc2ccccc2CN1

Target: T1, recombinant human GzmA (hGzmA) (Homo sapiens, UniProt P12544)
T1 construct: active, mature form; purchased Enzo Life Sciences ALX-201-118-C010
T1 sequence (P12544 29-262): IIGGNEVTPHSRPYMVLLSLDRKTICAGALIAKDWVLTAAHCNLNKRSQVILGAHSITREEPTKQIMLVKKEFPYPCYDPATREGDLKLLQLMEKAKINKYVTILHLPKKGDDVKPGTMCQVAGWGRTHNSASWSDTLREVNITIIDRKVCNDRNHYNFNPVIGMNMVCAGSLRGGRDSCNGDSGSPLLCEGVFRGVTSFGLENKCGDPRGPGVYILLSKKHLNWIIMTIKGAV
Assay: In-gel fluorescence labeling of recombinant active hGzmA
Assay type: biochemical
Conditions: hGzmA 100 nM, 37 °C; for Labeling of recombinant hGzmA (in-gel Cy5 fluorescence): varying probe concentrations, 2 h, SDS-PAGE
Protocol: Figure 3 GzmA ABPs covalently and competitively label active human and mouse GzmA. […] Recombinant hGzmA (100 nM) was incubated with varying concentrations of each ABP at 37 °C. B) Competitive labeling of hGzmA. Recombinant hGzmA (100 nM) was preincubated with covalent inhibitors 1 or 2 (5 μM) for 2 h, followed by labeling with ABPs 3 –5 (50 nM) for 2 h at 37 °C. Note: Pro‐form of hGzmA (the first lane) is not effectively stained by SYPRO‐Ruby. C) Structure of qABP 6. D) Quenched natures of 5 and 6. […] F) Labeling of mGzmA (1 μM) with 5 and 6 (1 μM, 24 h, 37 °C). Protein samples were analyzed by SDS‐PAGE and in‐gel fluorescence scanning for Cy5 signal and SYPRO Ruby staining. […]
C. In-gel fluorescence imaging
For recombinant enzyme labeling, working solutions of hGzmA (purchased from R&D Systems, Cat. No. 2905-SE-010 for pro-from and Enzo Life Sciences, Cat. No.: ALX-201-118-C010 for active, mature form) were prepared by diluting a 12.6 µM stock in the following assay buffer: 50 […]
mM Tris, 100 mM NaCl, 5 mM CaCl2, 0.01% (v/v) Tween-20, pH 7.5. […]
In-gel fluorescence and
SYPRO-Ruby staining images were acquired on a Typhoon FLA9500 instrument, while western blot images were acquired on an AMHERST ImageQuant 800 instrument.
Conditions for probe/inhibitor treatment for in-gel fluorescence analysis: Inhibitors and probes were incubated with active (or pro-) GzmA followed by treatment with 4X SDS reducing sample buffer. Samples were then heated to 100 °C for 5 min, brought to room temperature, and centrifuged. 20 µL of each sample was loaded onto a 15% polyacrylamide gel, which was then subjected to electrophoresis followed by the acquisition of in-gel fluorescence images. GzmA labeling was confirmed by western blotting, while protein loading was confirmed with SYPRO-Ruby staining. Incubation conditions for each figure/experiment are described below:
Conditions for Figure 3A: For labeling comparison between 3, 4, and 5, 100 nM of human GzmA was incubated with various concentrations of each probe for 2 h at 37 °C. For time-dependent labeling, 50 nM of 5 was incubated with 100 nM of human GzmA at 37 °C for the specified durations. Final reaction volume for both was 20 µL.
Conditions for Figure 3B: 100 nM of human GzmA was incubated with DMSO or 5 µM of 1 or 2 for 2 h at 37 °C in Eppendorf tubes. 0.5 µL of a 2 µM solution of 3, 4, or 5 in DMSO was then spiked into the Eppendorf tube, yielding a final probe concentration of 50 nM. The solution was incubated for another 2 h at 37 °C. Final reaction volume was 20 µL.
Conditions for Figure 3E: 100 nM of human GzmA was incubated with various concentrations of 5 or 6, respectively, for 2 h at 37 °C. Final reaction volume was 20 µL.
Conditions for Figure 3F: 1 µM of mouse GzmA was incubated with 1 µM of 5 or 6, respectively, for 24 h at 37 °C. Final reaction volume was 20 µL.
Conditions for Figure 4A: 1 mg/mL of lysates was incubated with various concentrations of 5 or 6, respectively, for 1 h at 37 °C.
Conditions for Figure 4C: Various concentrations of probes 3-6 were incubated with 1x10^6 NK-92 cells for 2 h at 37 °C in a humidified incubator. Cells were centrifuged, washed with PBS (x2) and lysed with ~40 µL of ice-cold RIPA buffer. Lysates were collected, protein concentration was measured with PIERCE BCA protein assay and samples were analyzed with in-gel fluorescence and GzmA western blotting. […]
All flow cytometry data were collected on BD LSRFortessa and FACSymphony A5 Cell Analyzers and analyzed with FlowJo software. Briefly, cells were processed according to the intended protocols for each experiment. Thereafter, cells were pelleted, fixed in the dark for 20 min at room temperature (Fixation buffer: BioLegend #420801), and pelleted again by centrifugation. Fixed cells were then resuspended in 1x intracellular staining perm wash buffer (BioLegend #421002), followed by centrifugation two times. Fixed/Permeabilized cells were then resuspended in […]

| Substance | Concentration and time dependence of labeling of active hGzmA (time course with 50 nM probe) | Labeling of recombinant hGzmA (in-gel Cy5 fluorescence) |
| --- | --- | --- |
| IGNR [compound 5] | concentration‐ and time‐dependent labeling | efficiently label recombinant human GzmA (hGzmA) at submicromolar concentrations |
| GFFR [compound 7] |  | lower labeling efficiency for both hGzmA and mGzmA compared with probes 5 and 6 |
| [Tic]G[Oic]R [compound 6] |  | efficiently (and slightly more strongly than 5) labeled |
